Columns and labels:
late asthmatic response = test: Model experiment of asthma in guinea pigs (inhibition of late asthmatic response); assay type: in vivo, guinea pig; settings: 10 mg/Kg orally 30 minutes before antigen; 6 animals; control 112 ± 17.8
Description: [Model experiment of asthma in guinea pigs. (Inhibition of late asthmatic response)]
Hartley strain female guinea pigs (SLC) having the body weight of about 350 g were used and 50 mg/Kg of cyclophosphamide (mfd. by Sigma Chemical Co.) was injected intraperitoneally. 2 Days after this pretreatment by injection, 1 mg of egg albumin (mfd. by Sigma Chemical Co.) and 100 mg of aluminum hydroxide (Wako Pure Chemical Industries Co., Ltd.) were injected intraperitoneally for sensitization. 3 Weeks after the sensitization, 10 μg of egg albumin and 100 mg of aluminum hydroxide were injected intraperitoneally for booster sensitization. 6 Weeks after the primary sensitization, asthma attach was induced by inhalation and exposure to egg albumin (4 mg/ml) by using a nebulizer (NE-U12: mfd. by Omron Corp.). The asthma reaction was determined by use of a body-plethysmography (using system developed by Uchida lecturer in internal department for respiratory organs at Tsukuba University; air-resist tube, respiratory amplifier and differential pressure transducer (mfd. by Nihon Koden); and osciloscope (mfd. by Iwasaki Tsushin)), so as to determine a […] of specific airway conductance (sGaw) under the condition without anesthesia. The sGaw value just before the administration of test comopound was measured and the value is referred to as 100. Test compound was suspended in 1% HPMC (hydroxymethylpropylcellulose mfd. by Shinetsu Chemical), and was administered orally 30 minutes before the exposure with the antigen. Then, sGaw value was measured in each points until 7 hours after the exposure with the antigen.

contact hypersensitivity = test: Contact hypersensitivity model in mouse (atopic dermatitis model); assay type: in vivo; settings: po, 2 mg/Kg p.o., 30 minutes before causal induction, 24 hours, read-out: Control % (intumescence of the pinna, untreated = 100)
Description: [Contact hypersensitivity model in mouse (Atopic dermatisis model)]
Test was conducted by referring to the method as described in "HIFU (a Japanese journal of dermatology)" Vol. 35, Supplemental Issue No. 15, pp. 96-106, published on March 1993.
CBA/J strain mice of 6-8 week age were used as the test animals (6-8 mice in one group). The mouse was sensitized by coating 150 μl of 5% of picryl chloride [dissolved in a mixture of acetone with olive oil (1:4)] on the shaved portion of skin in the back of mouse. […] 24 Hours after the causal induction, the effect for inhibiting contact hypersensitivity performed by the test compounds were evaluated by referring to the action for inhibiting intumescence of the pinna as an indication. The test compound was orally administered 30 minutes before the causal induction.
The following compounds were used for the test.
1) Compounds of the Present Invention:
(Dosage: 20 mg/Kg p.o., which is 7-10 times larger amount of dosages for compounds of the present invention)
The value obtained from the sensitization test without administration of the test compound was referred to as 100, and by comparing with the values obtained from the sensitization test with administration of the test compound was referred to "% control" values.

For `COCc1cc(=O)n2ncc(-c3ccc(Sc4ccccc4)cc3)c2[nH]1` [Example 1, 4,7-dihydro-5-methoxymethyl-7-oxo-3-(4-phenylthiophenyl)pyrazolo[1,5-a]pyrimidine], the “AUC (4-7 hours) of sGaw reaction” value (late asthmatic response) was 32.8 ± 9.2 and the response vs control in vivo at 2 mg/kg (contact hypersensitivity) was 53.7%.

From patent US6197774A, “Pyrimidine derivative” (Otsuka Pharmaceutical Co., Ltd., priority 1997, dated 2001)
